Measurements from patent publication US12287326B2, “Fluorescent turn-on chemosensors for detection of aluminum ion and azide” (Morgan State University, priority 2019, dated 2025).

Test: Fluorescence titration of sensors with Al^3+
Conditions: λex=510 nm, emission 585 nm
Procedure: All reagents and solvents were purchased as analytical-grade and used without further purification unless otherwise stated. Stock solutions of metal ions were prepared from their nitrate and chloride salts and anion species from their tetrabutylammonium salts. Distilled deionized water was used throughout the experiments. ^1H-NMR and 13C-NMR spectra were recorded using an Avance 400 MHz spectrometer (BRUKER® Billerica, Karlsruhe, Germany) with tetramethylsilane (TMS) as internal standard and deuterated chloroform (CDCl3) as solvent. NMR spectra were analyzed using MestReNova software (version 10, Mestrela Research, Feliciano Barrera-Bajo, Spain). The IR spectrum was obtained using FT-IR spectrometer (Shimadzu, IRAffinity-1S, Columbia, MD, USA). […] All UV-vis spectroscopy experiments were recorded using a Cary UV/vis spectrophotometer 5000 (VARIAN®, Walnut Creek, CA, USA). Fluorescence emission spectra experiments were measured using a Cary 60 series spectrometer (AGILENT® Walnut Creek, CA, USA), with excitation and emission slit widths of 5 nm and excitation wavelength at 510 nm. […]
All spectroscopic measurements were carried out in aqueous CH3CN medium at room temperature. […] Each fluorescence titration was repeated at least thrice until consistent values were obtained. […] The association constant (K) was calculated from absorbance studies by the linear Benesi-Hildebrand equation. […]

CCN(CC)c1ccc2c(c1)Oc1cc(N(CC)CC)ccc1C21c2ccccc2C(=O)N1/N=C/c1c(OC)ccc2ccccc12 [L1]
detection limit for Al^3+ ions: 32 µM

CCN(CC)c1ccc2c(c1)Oc1cc(N(CC)CC)ccc1C21c2ccccc2C(=O)N1/N=C/c1cc(Br)cc(OC)c1O [L2]
detection limit for Al^3+ ions: 47 µM
